Results on 23 compounds are retold here after publication PMC7340344 (Journal of medicinal chemistry, 2020).

This test deals with T1, HAT domain of human p300 (Homo sapiens, UniProt Q09472).
T1 sequence (Q09472 1195-1673): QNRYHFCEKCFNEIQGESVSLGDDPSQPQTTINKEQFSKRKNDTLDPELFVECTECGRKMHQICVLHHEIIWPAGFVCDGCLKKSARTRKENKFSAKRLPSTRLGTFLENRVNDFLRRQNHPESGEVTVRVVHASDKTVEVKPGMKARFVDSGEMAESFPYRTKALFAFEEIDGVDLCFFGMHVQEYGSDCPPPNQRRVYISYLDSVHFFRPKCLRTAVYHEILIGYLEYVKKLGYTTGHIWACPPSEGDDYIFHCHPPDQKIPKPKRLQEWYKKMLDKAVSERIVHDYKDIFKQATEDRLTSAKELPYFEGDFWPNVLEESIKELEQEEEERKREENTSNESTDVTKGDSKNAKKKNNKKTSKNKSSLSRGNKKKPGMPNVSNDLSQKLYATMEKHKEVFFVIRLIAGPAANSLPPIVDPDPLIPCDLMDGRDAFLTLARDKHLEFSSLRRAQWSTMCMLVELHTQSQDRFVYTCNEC
As to the kind of experiment: Inhibition of p300-HAT. In kind it is biochemical. The conditions noted are these: for inhibitory activity against p300 HAT (in words): tested up to 10 μM; for activity reduction as compared to 12: ratio of p300 HAT IC50 to that of compound 12; for inhibition at 10 µM: read-out: % inhibition at 10 μM, compound at 10 μM.

pIC50: −log10 of the molar value. Counter-ions that a name gives are not always drawn.

With `CCCCc1ccc(-c2cc(CNCC3CCNCC3)sc2-c2ccc(CCCC)cc2)cc1` [Compound 23, 1-(4,5-bis(4-Butylphenyl)thiophen-2-yl)-N-(piperidin-4-ylmethyl)methanamine hydrochloride], the “inhibitory activity against p300 HAT (in words)” value (shortened to “inhibitory activity”) is reported as “Loss of activity”. In the case of `CC(C)(C)c1ccc(-c2csc(C(=O)NCC3CCNCC3)n2)cc1` [Compound 39, 4-(4-(tert-Butyl)phenyl)-N-(piperidin-4-ylmethyl)thiazole-2-carboxamide hydrochloride], the “inhibitory activity” value is “Loss of activity”. For `CC(C)(C)c1ccc(-c2cc(CNCCC3CCNCC3)sc2-c2ccc(C(C)(C)C)cc2)cc1` [Compound 15, N-((4,5-bis(4-(tert-Butyl)phenyl)thiophen-2-yl)methyl)-2-(piperidin-4-yl)ethanamine hydrochloride], the “activity reduction as compared to 12” value is roughly 3 fold. With `CC(C)(C)c1ccc(-c2sc(C(=O)NCC3CCNCC3)cc2-c2ccc(CN3CCNCC3)cc2)cc1` [Compound 7, 5-(4-(tert-Butyl)phenyl)-4-(4-(piperazin-1-ylmethyl)phenyl)-N-(piperidin-4-ylmethyl)thiophene-2-carboxamide hydrochloride], the “inhibitory activity” value is “almost inactive”. For the compound `OCc1ccc(-c2cc(CNCC3CCNCC3)sc2-c2ccc(CO)cc2)cc1` [Compound 29, ((5-(((Piperidin-4-ylmethyl)amino)methyl)thiophene-2,3-diyl)bis(4,1-phenylene))dimethanol hydrochloride], the “inhibitory activity” value was “weak inhibitor”. As to `COc1ccc(-c2cc(CNCC3CCNCC3)sc2-c2ccc(OC)c(OC)c2)cc1OC` [Compound 31, 1-(4,5-bis(3,4-Dimethoxyphenyl)thiophen-2-yl)-N-(piperidin-4-ylmethyl)methanamine hydrochloride], the “inhibitory activity” value is on record as “Lack of inhibition”. Still for that read-out and setting: next, “N-((5,6-bis(4-(Furan-3-yl)phenyl)pyrazin-2-yl)methyl)piperidin-4-amine hydrochloride [Compound 40]”: “significantly less active than its thiophene analog 11”. For the compound `CC(C)(C)c1ccc(-c2sc(CNCC3CCNCC3)c(Br)c2-c2ccc(C(C)(C)C)cc2)cc1` [Compound 33, 1-(3-Bromo-4,5-bis(4-(tert-butyl)phenyl)thiophen-2-yl)-N-(piperidin-4-ylmethyl)methanamine hydrochloride], the “activity reduction as compared to 12” value was ~ 3 fold. As to `CC(C)(C)c1ccc(-c2cc(CNCC3CCNCC3)oc2-c2ccc(C(C)(C)C)cc2)cc1` [Compound 34, 1-(4,5-bis(4-(tert-Butyl)phenyl)furan-2-yl)-N-(piperidin-4-ylmethyl)methanamine hydrochloride], the pIC50 – broadly, the negative decadic logarithm of the IC50, by convention in mol/L – was 5.31. `CC(C)(C)c1ccc(-c2cc(CN3CCOCC3)sc2-c2ccc(C(C)(C)C)cc2)cc1` [Compound 19, 4-((4,5-bis(4-(tert-Butyl)phenyl)thiophen-2-yl)methyl)morpholine hydrochloride]: the “inhibitory activity” value is “Loss of activity”. Regarding `c1cc(-c2cc(CNCC3CCNCC3)sc2-c2ccoc2)co1` [Compound 30, 1-(4,5-di(Furan-3-yl)thiophen-2-yl)-N-(piperidin-4-ylmethyl)methanamine hydrochloride], the “inhibitory activity” value was “very low activity”.

With `CC(C)(C)c1ccc(-c2cc(COCC3CCNCC3)sc2-c2ccc(C(C)(C)C)cc2)cc1` [Compound 13, 4-(((4,5-bis(4-(tert-Butyl)phenyl)thiophen-2-yl)methoxy)methyl)piperidine hydrochloride], the “inhibitory activity” value is reported as “complete loss of inhibitory activity”. As to `CC(C)(C)c1ccc(-c2sc(C(=O)NCC3CCNCC3)cc2-c2cccnc2)cc1` [Compound 9, 5-(4-(tert-Butyl)phenyl)-N-(piperidin-4-ylmethyl)-4-(pyridin-3-yl)thiophene-2-carboxamide hydrochloride], the inhibition (in general, how much of the control response was suppressed) at 10 µM was roughly 30%.

Consider `CC(C)(C)c1ccc(-c2cc(CNC3CCNCC3)sc2-c2ccc(C(C)(C)C)cc2)cc1` [Compound 14, N-((4,5-bis(4-(tert-Butyl)phenyl)thiophen-2-yl)methyl)piperidin-4-amine hydrochloride], for which the “activity reduction as compared to 12” value was ~ 8 fold. With `CC(C)(C)c1ccc(-c2csc(CNCC3CCNCC3)n2)cc1` [Compound 38, 1-(4-(4-(tert-Butyl)phenyl)thiazol-2-yl)-N-(piperidin-4-ylmethyl)methanamine hydrochloride], the “inhibitory activity” value is on record as “Loss of activity”.

As for `COc1ccc(-c2ccc(-c3cc(CNCC4CCNCC4)sc3-c3ccc(-c4ccc(OC)cc4)cc3)cc2)cc1` [Compound 10, 1-(4,5-bis(4’-Methoxy-[1,1’-biphenyl]-4-yl)thiophen-2-yl)-N-(piperidin-4-ylmethyl)methanamine hydrochloride], the “activity reduction as compared to 3” value (removal of the carbonyl group) was ~ 50%. With `CC(C)(C)c1ccc(-c2cc(CNCC3CCNCC3)sc2-c2ccc(CN)cc2)cc1` [Compound 26, 1-(5-(4-(Aminomethyl)phenyl)-4-(4-(tert-butyl)phenyl)thiophen-2-yl)-N-(piperidin-4-ylmethyl)methanamine hydrochloride], the “activity reduction as compared to 12” value is recorded as ~ 3 fold.

Consider `CC(C)(C)c1ccc(-c2nc(CNCC3CCNCC3)sc2-c2ccc(C(C)(C)C)cc2)cc1` [Compound 37, 1-(4,5-bis(4-(tert-Butyl)phenyl)thiazol-2-yl)-N-(piperidin-4-ylmethyl)methanamine hydrochloride], for which the “activity reduction as compared to 12” value is given as “more than 13 fold”. As to `CC(C)(C)c1ccc(-c2cc(CN3CCNCC3)sc2-c2ccc(C(C)(C)C)cc2)cc1` [Compound 18, 1-((4,5-bis(4-(tert-Butyl)phenyl)thiophen-2-yl)methyl)piperazine hydrochloride], the “inhibitory activity” value was “Loss of activity”.

As for `CC(C)(C)c1ccc(-c2sc(C(=O)NCC3CCNCC3)cc2-c2ccoc2)cc1` [Compound 8, 5-(4-(tert-Butyl)phenyl)-4-(furan-3-yl)-N-(piperidin-4-ylmethyl)thiophene-2-carboxamide hydrochloride], the inhibition at 10 µM was roughly 30%. Compound `c1cc(-c2ccc(-c3cc(CNCC4CCNCC4)oc3-c3ccc(-c4ccoc4)cc3)cc2)co1` [Compound 35, 1-(4,5-bis(4-(Furan-3-yl)phenyl)furan-2-yl)-N-(piperidin-4-ylmethyl)methanamine hydrochloride] had a pIC50 of 5.52. Regarding `CC(C)(C)c1ccc(-c2sc(CNCC3CCNCC3)cc2-c2ccc(CN)cc2)cc1` [Compound 27, 1-(4-(4-(Aminomethyl)phenyl)-5-(4-(tert-butyl)phenyl)thiophen-2-yl)-N-(piperidin-4-ylmethyl)-methanamine hydrochloride], the “inhibitory activity” value is “major activity loss”.

Regarding `c1ccc(-c2cccc(-c3cc(CNCC4CCNCC4)sc3-c3cccc(-c4ccccc4)c3)c2)cc1` [Compound 32, 1-(4,5-di([1,1’-Biphenyl]-3-yl)thiophen-2-yl)-N-(piperidin-4-ylmethyl)methanamine hydrochloride], the “inhibitory activity” value was “Lack of inhibition”.
